Measurements published in patent US20140107113A1, “PHARMACEUTICAL COMPOSITION COMPRISING A TRPA1 ANTAGONIST AND A BETA-2 AGONIST” (GLENMARK PHARMACEUTICALS SA, priority 2011, published 2014).

molecular target: T1, human TRPA1 receptor (Homo sapiens, UniProt O75762); assay: Inhibition of AITC induced cellular uptake of radioactive calcium in human TRPA1 expressing CHO cells; format: cell-based; conditions: read-out: hTRPA1 IC50 values
T1 construct: expressed in transfected cells; host or cells: CHO cells
Procedure: The human IC50 values were measured by the following method:
The inhibition of TRPA1 receptor activation is measured as inhibition of allylisothiocyanate (AITC) induced cellular uptake of radioactive calcium.
Test compound solution is prepared in a suitable solvent.
Human TRPA1 expressing CHO cells are grown in suitable medium. Cells are treated with test compounds followed by addition of AITC.
Cells are washed, lysed and the radioactivity in the lysate is measured in Packard Top count after addition of liquid scintillant.
The concentration response curves for compounds are plotted as a % of maximal response obtained in the absence of test antagonist, and the IC50 values are calculated from such concentration response curve by nonlinear regression analysis using GraphPad PRISM software.

T1 sequence (O75762 whole entry): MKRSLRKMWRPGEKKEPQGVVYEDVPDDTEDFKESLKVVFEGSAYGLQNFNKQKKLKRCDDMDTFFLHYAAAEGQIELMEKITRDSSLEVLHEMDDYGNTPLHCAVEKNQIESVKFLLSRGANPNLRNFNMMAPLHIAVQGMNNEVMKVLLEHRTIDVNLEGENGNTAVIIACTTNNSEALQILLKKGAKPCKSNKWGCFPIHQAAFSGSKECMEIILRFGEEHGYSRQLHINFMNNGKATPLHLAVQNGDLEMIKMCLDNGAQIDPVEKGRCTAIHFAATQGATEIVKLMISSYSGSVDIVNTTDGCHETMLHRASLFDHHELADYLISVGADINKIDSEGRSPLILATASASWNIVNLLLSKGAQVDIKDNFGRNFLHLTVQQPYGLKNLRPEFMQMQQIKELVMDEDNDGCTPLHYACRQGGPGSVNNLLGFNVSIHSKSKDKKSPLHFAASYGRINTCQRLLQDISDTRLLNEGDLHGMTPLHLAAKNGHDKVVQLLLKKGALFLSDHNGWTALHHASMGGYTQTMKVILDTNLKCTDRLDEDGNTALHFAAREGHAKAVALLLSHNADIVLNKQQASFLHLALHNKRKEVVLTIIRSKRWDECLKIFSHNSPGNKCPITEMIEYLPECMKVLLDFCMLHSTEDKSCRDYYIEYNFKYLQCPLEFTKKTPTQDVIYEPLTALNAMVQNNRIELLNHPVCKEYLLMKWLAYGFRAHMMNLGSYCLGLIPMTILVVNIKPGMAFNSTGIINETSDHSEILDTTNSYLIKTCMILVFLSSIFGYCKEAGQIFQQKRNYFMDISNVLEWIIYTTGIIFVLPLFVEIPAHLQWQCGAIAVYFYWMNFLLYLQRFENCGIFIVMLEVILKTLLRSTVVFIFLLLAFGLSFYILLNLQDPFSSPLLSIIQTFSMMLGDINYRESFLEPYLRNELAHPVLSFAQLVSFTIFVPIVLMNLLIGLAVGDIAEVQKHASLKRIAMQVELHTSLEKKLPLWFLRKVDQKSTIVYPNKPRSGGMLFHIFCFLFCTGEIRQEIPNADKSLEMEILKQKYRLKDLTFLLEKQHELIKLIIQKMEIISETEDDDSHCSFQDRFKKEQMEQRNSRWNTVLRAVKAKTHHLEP

Row | IC50 | Structure (SMILES)
1 | 58.9 nM | Cn1c(=O)c2c(CC(=O)Nc3ccn(-c4cccc(C(F)(F)F)c4)n3)cccc2n(C)c1=O [Compound 16]
2 | 43.9 nM | CC(C)Cc1ccc(-c2csc(NC(=O)Cc3cccc4c3c(=O)n(C)c(=O)n4C)n2)cc1 [Compound 23]
3 | 18 nM | Cn1c(=O)c2c(ccn2CC(=O)Nc2nc(-c3cc(Cl)c(OCCC(F)(F)F)c(Cl)c3)cs2)n(C)c1=O [Compound 35]
4 | 12.3 nM | Cn1c(=O)c2c(ccn2CC(=O)Nc2nc(-c3cc(F)c(OCC(F)(F)F)c(F)c3)cs2)n(C)c1=O [Compound 37]
5 | 8.36 nM | Cn1c(=O)c2c(cnn2CC(=O)Nc2nc(-c3cc(Cl)c(OCC(C)(C)C)c(Cl)c3)cs2)n(C)c1=O [Compound 44]
6 | 4.84 nM | Cn1c(=O)c2c(CC(=O)Nc3nc(-c4ccc(C(F)(F)F)c(F)c4)cs3)csc2n(C)c1=O [Compound 51]
7 | 3.38 nM | Cn1c(=O)c2c(CC(=O)Nc3nc(-c4cc(F)c(OCC(F)(F)F)c(F)c4)cs3)coc2n(C)c1=O [Compound 56]
8 | 6.65 nM | Cc1oc2c(c1CC(=O)Nc1nc(-c3ccc(C(F)(F)F)c(F)c3)cs1)c(=O)n(C)c(=O)n2C [Compound 65]
9 | 451 nM | Cn1c(=O)c2c(ncn2CC(=O)Nc2nc(-c3ccc(Br)cc3)cs2)n(C)c1=O [Compound 91]
10 | 17.1 nM | Cn1c(=O)c2c(CC(=O)Nc3nc(-c4ccc(F)c(C(F)(F)F)c4F)cs3)onc2n(C)c1=O [Compound 92]

Second part, the compound before the results:

Row | Structure (SMILES) | IC50
11 | Cn1c(=O)c2c(CC(=O)Nc3nc(-c4ccc(F)c(C(F)(F)F)c4F)cs3)csc2n(C)c1=O [Compound 52] | 2.49 nM
12 | Cc1oc2c(c1CC(=O)Nc1nc(-c3ccc(OC(F)(F)F)c(Cl)c3)cs1)c(=O)n(C)c(=O)n2C [Compound 73] | 8.54 nM
13 | Cn1c(=O)c2c(CC(=O)Nc3nc(-c4ccc(C(F)(F)F)c(F)c4F)cs3)nsc2n(C)c1=O [Compound 84] | 5.35 nM
14 | Cn1c(=O)c2c(CC(=O)Nc3nc(-c4ccc(OC(F)(F)F)c(F)c4)cs3)nccc2n(C)c1=O [Compound 88] | 11.4 nM
15 | COCCCOc1cccc(C2NC(=S)NC3=C2C(=O)c2ccccc23)c1 (centres unmarked) [Compound 90] | 5.61 nM
16 | Cc1oc2c(c1CC(=O)/N=c1\scc(-c3ccc(OC(F)(F)F)c(Cl)c3)n1COC(=O)[C@@H](N)C(C)C)c(=O)n(C)c(=O)n2C [Compound 95] | 88.5 nM
17 | Cc1oc2c(c1CC(=O)N=c1scc(-c3ccc(OC(F)(F)F)c(Cl)c3)n1COC(=O)CN)c(=O)n(C)c(=O)n2C [Compound 98] | 54.3 nM
